Laboratory results as given in patent EP0076669A1, “Novel 3-phenyl-1-indanamines, pharmaceutical compositions and methods of preparation” (KEFALAS A/S, priority 1981, dated 1983).
Read-outs that look alike come from different tables or passages of the source.

Key:
[1] = biological target: T1, ^3H-5-HT uptake in synaptosomes (Rattus norvegicus, UniProt P31652); test: Inhibition of 3H-5-HT uptake in synaptosomes in vitro; type: biochemical, Rats
T1 construct: Rest of the brain is gently homogenized (glass teflon homogenizer); from tissue; host or cells: rat brain without cerebellum, pons and medulla oblongata, synaptosomal P2 fraction
Method: Inhibition of ^3H-5-HT uptake in synaptosomes in vitro.
(§1) 0.32 M sucrose containing 1 mM Nialamide
Krebs-Ringer-Phosphate buffer, pH 7.4
Millipore filters (HAWPO 2500, 0.45 µ)
5-hydroxy [G-^3H] tryptamine creatinine sulphate = ^3H-5-HT, spc. act. app. 10 Ci/mmol, The Radiochemical Centre, Amersham.
(§2) Thomas Tissue Grinder, clearance 0.004-0.006 inch.
Rats are killed by a blow on the head and exsanguinated. The brain is quickly removed, rinsed for blood and placed on a cold plate. The cerebellum, pons and medulla oblongata are removed. Rest of the brain is gently homogenized (glass teflon homogenizer) in 40 volumes of ice cold 0.32 M of sucrose containing 1 mM of nialamide. The P2 fraction (synaptosomal fraction) is obtained by centrifugation (600 g, 10 min. and 25000 g, 55 min., 4°C) and suspended in 40 volumes of a modified Krebs-Ringer-Phosphate buffer, pH 7.4.
To 200µl of the synaptosomal suspension on ice are added 3700 µl modified Krebs-Ringer-phosphate buffer, pH 7.4, containing test substances. After preincubation at 37°C for 5 min., 100 µl of ^3H-5-HT (final concentration in the samples = 10 nM) are added and the samples are incubated for 10 min. at 37 °C. The incubation is terminated by filtering the samples under vacuum through Millipore filters with a wash of 5 ml buffer containing 10 µM of unlabelled 5-HT. After solubilizing the filters in I ml of cellosolve, 10 ml of Instagel are added, and the radioactivity is determined by liquid and scintillation counting. The unspecific binding and passive transport of ^3H-5-HT is determined by incubating control samples on ice instead of at 37°C. All experiments are performed in triplicate. The mean of all control samples are calculated.
The IC50- values are determined as the concentrations, at which the uptake are 50 per cent of the uptake in control sample -uptake in ice samples.

[2] = test system: tetrabenazine induced ptosis; test: Tetrabenazine ptosis antagonism; type: in vivo; conditions: Mus musculus, ip, 0.5 h; i.p., mice; tetrabenazine 40 mg/kg i.p. 30 min after test substance
Method: For insoluble substances the doses 0, 1/8, 1/32 and 1/128 of "i.^p. LD50" are used. 3 mice are used for each dose level. Thirty minutes after administration of test substance, tetrabenazine, 40 mg/kg, is injected i.p. Ptosis is evaluated 30 minutes after administration of tetrabenazine, the following rating scale being used: 0 = normal eyes, 1=1/4 closed eyes, 2 = 1/2 closed eyes, 3 = 3/4 closed eyes and 4 = completely closed eyes. Ptosis is evaluated 30 seconds after tilting the cage 3 times. The tilting is carried out in such a way that the animals slide along the floor of the cage.
The results are recorded as % inhibition of ptotic score calculated on the basis of the score of the control group. If ptotic score for the control group is < 10 the test is rejected and another is performed. The registration can also be done as an on line procedure.

[3] = biological target: T2, ^3H-DA uptake in striatal synaptosomes (Rattus norvegicus, UniProt P23977); test: biochemical; type: biochemical, Rats; conditions: read-out: Uptake Inhibition IC50 DA
T2 construct: the two corpura striata are dissected out and gently homogenized; from tissue; host or cells: rat corpus striatum, synaptosomal P2 fraction
Method: ^3H-DA uptake in striatal synaptosomes in vitro.
as §1
Krebs-Ringer-phosphate buffer, pH 7.4
3,4-dihydroxyphenylethylamine [ethyl-1-^3H(N)] = ^3H-DA, spc. act. app. 15 Ci/mmol, New England Nuclear
as §2
Rats are killed by a blow to their head, exsanguinated and their brains removed. The brain is placed on a precooled glassplate, and the two corpura striata are dissected out and gently homogenized in 40 volumes of ice cold 0.32 M sucrose containing 1 mM of nialamide using a hand homogenizer with teflon pestle. The P2-fraction (synaptosomal fraction) is obtained by centrifugation (600 g, 10 min., 25000 g, 55 min. 4 °C) and suspended in 40 volumes of a modified Krebs-Ringer-phosphate buffer, pH 7.4. To 200µl of the synaptosomal fraction on ice are added 3700 µl modified Krebs-Ringer-phosphate buffer - containing test compounds. After a preincubation at 37°C for 5 min. […] The incubation is terminated by filtering the samples under vacuum through Millipore filters with a wash of 5 ml buffer containing 10 µM of unlabelled DA. After solubilizing the filters in 1 ml of cellosolve the radioactivity is determined by liquid scintillation counting after the addition of 10 ml of Insta-Gel. The unspecific binding of ^3H-DA is determined by incubating control samples on ice instead of at 37 °C.
All experiments are performed in ttriplicate.
The mean of all control samples and ice samples are calculated.

potentiation of 5-HTP = test: 5-HTP potentiation (5-HTP syndrome); type: in vivo; conditions: Mus musculus, ip, 0.5 h; i.p., mice; 5-HTP 100 mg/kg i.v. 30 min after test substance; read-out: 5-HTP potentation,ED50
Method: The test substance is given i.p. or p.o. in the doses 10, 10, 2.5, 0.63 and 0 mg/kg. Three mice are used for each dose level. One of the groups on the highest dose is used as control of the compounds own effect. […] Thirty minutes after administration of test substance, 5-HTP, 100 mg/kg i.v. is given (injection time 5-10 sec.). After this 5-HTP dose the animals remain unaffected. If the animals have been pretreated with a substance, which inhibits the re-uptake of 5-HT, a 5-HTP syndrome will occur. This is characterized by the following symptoms: 1) excitation, 2) tremor, and 3) abduction of the hind limbs.
After the administration of 5-HTP the animals are observed for 15 minutes and each animal is given one point for each symptom present. Thus, the maximal score for a group consisting of 3 mice is 9.
The results are stated as fractions: 0/9, 1/9, 2/9 ..... 8/9, 9/9, where 0, 1, 2 ..... 8, 9 are the number of points per group after the dose in question.

[4] = rat brain synaptosomes, 3H-5-HT 10 nM, read-out: Uptake Inhibition IC50 5-HT
[5] = rat striatal synaptosomes, 3H-DA 12.5 nM

T2 sequence (P23977 whole entry): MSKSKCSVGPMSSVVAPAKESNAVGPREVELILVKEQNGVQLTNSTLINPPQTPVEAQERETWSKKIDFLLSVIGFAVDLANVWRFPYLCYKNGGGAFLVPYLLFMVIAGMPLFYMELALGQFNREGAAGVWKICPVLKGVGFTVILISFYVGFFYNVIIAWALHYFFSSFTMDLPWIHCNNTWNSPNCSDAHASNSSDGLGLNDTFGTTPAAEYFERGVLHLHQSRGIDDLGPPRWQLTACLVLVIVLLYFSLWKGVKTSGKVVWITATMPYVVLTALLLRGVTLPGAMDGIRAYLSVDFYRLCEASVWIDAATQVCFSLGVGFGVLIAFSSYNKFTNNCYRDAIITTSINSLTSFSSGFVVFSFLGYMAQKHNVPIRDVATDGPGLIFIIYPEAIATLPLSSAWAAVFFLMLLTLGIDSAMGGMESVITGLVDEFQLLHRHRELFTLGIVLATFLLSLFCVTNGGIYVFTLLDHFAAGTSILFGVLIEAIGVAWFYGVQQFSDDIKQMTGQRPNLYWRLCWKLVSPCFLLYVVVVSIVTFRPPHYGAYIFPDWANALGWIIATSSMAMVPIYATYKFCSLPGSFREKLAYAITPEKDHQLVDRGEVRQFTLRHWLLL
T1 sequence (P31652 whole entry): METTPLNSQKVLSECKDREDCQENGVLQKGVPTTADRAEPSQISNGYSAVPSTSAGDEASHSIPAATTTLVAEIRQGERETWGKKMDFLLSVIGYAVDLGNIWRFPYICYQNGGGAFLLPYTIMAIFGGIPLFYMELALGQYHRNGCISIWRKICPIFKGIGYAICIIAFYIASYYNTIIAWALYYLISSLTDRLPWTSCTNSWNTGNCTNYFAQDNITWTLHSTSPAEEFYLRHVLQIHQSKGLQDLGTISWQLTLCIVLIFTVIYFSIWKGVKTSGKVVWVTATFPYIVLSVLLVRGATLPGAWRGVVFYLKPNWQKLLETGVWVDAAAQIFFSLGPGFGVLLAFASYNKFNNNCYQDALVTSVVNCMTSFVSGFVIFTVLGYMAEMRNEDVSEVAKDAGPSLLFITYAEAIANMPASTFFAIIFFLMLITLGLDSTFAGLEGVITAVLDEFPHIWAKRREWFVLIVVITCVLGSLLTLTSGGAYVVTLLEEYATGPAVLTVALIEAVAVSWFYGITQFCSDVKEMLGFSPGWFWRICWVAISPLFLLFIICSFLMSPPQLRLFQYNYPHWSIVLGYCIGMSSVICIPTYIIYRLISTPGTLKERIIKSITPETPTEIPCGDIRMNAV

Compound	IC50 [1, 4]	ED50 [2]	IC50 [3, 5]	ED50 (potentiation of 5-HTP)	IC50 [3]	IC50 [1]
Cc1ccc2c(c1)[C@H](N(C)C)C[C@H]2c1ccc(F)cc1 (relative stereo) [Lu 18-125-c]	9.8 nM	41 µmol/kg	100 nM	44 µmol/kg	–	–
CCN(CC)[C@@H]1C[C@@H](c2ccc(F)cc2)c2ccc(F)cc21 (relative stereo) [Lu 18-149-c]	140 nM	52 µmol/kg	68 nM	–	–	–
CSc1ccc2c(c1)[C@H](N(C)C)C[C@H]2c1ccc(F)cc1 (relative stereo) [Lu 19-016-c]	4.5 nM	35 µmol/kg	170 nM	39 µmol/kg	–	–
CN(C)[C@@H]1C[C@@H](c2ccc(N)cc2)c2ccc(F)cc21 (relative stereo) [Lu 19-021]	330 nM	9 µmol/kg	190 nM	15 µmol/kg	–	–
Cc1ccc2c(c1)C(N(C)C)CC2c1ccc(F)cc1 (stereo not drawn) [Lu 18-119]	1.4 nM	45 µmol/kg	71 nM	> 37 µmol/kg	–	–
CN(C)C1CC(c2ccc(Cl)c(Cl)c2)c2ccccc21 (stereo not drawn) [Lu 18-122-c]	0.37 nM	14 µmol/kg	27 nM	10 µmol/kg	–	–
CN(C)C1CC(c2ccc(Cl)cc2Cl)c2ccccc21 (stereo not drawn) [Lu 18-137-c]	0.03 nM	23 µmol/kg	860 nM	19 µmol/kg	–	–
CN(C)C1CC(c2ccc(F)cc2)c2ccc(F)cc21 (stereo not drawn) [Lu 18-147]	1.2 nM	> 147 µmol/kg	440 nM	21 µmol/kg	–	–
CCN(CC)C1CC(c2ccc(F)cc2)c2ccc(F)cc21 (stereo not drawn) [Lu 18-148-c]	440 nM	> 118 µmol/kg	1600 nM	–	–	–
CN(C)C1CC(c2ccc(F)cc2)c2ccc(C(F)(F)F)cc21 (stereo not drawn) [Lu 18-150-c]	4.3 nM	> 111 µmol/kg	340 nM	101 µmol/kg	–	–
CCN(CC)C1CC(c2ccc(Cl)c(Cl)c2)c2ccccc21 (stereo not drawn) [Lu 18-188-c]	13 nM	> 108 µmol/kg	–	–	120 nM	–
CSc1ccc2c(c1)C(N(C)C)CC2c1ccc(F)cc1 (stereo not drawn) [Lu 19-017-c]	< 1 nM	27 µmol/kg	150 nM	23 µmol/kg	–	–
CN(C)C1CC(c2ccccc2)c2ccccc21 (stereo not drawn) [Lu 19-025-c, reference compound]	9.5 nM	> 143 µmol/kg	–	> 36 µmol/kg	340 nM	–
NC1CC(c2ccc(Cl)c(Cl)c2)c2ccccc21 (stereo not drawn) [Lu 19-030-o]	15 nM	16 µmol/kg	7.4 nM	> 27 µmol/kg	–	–
CN(C)C1CC(O)(c2ccc(Cl)c(Cl)c2)c2ccccc21 (stereo not drawn) [Lu 19-034, N,N-Dimethyl-3-(3,4-dichlorophenyl)-3-hydroxy-1-indanamine]	–	9 µmol/kg	130 nM	11 µmol/kg	–	1.7 nM
